Data published in ChEMBL document CHEMBL5729292, “Bromodomain inhibitor compound and use thereof” (2022).

Target: Bromodomain-containing protein 4 (Homo sapiens, UniProt O60885)
Test: Inhibitory Activity Assay of BRD4 Small Molecule Compounds: AlphaScreen kit (Perkin Elmer) was used to detect effect of the compounds on binding of BRD4 bromodomain to acetylated histone H4 polypeptide. […] Each of fusion proteins containing (His)6tag can be recognized and bound by Ni2+. […] The donor microbeads were coated with streptavidin and can bind to biotinylated acetylated H4 polypeptide. The acceptor microbeads were coated with Ni2+ ions and can bind to the BD1 protein with (His)6tag. When the BD1 protein recognized the acetylated H4 polypeptide, the donor microbeads and the acceptor microbeads can be brought closer to a certain distance. Within this range, the donor microbeads can produce singlet oxygen after being irradiated with a 680 nm excitation light, and transfer the singlet oxygen to the acceptor microbeads. After a series of cascade chemical reactions, the acceptor microbeads will generate an emission wave of 520-620 nm, which in turn can be detected a signal. In this experiment, the test system was 20 μL, and the compound needs to be diluted in buffer 1 (20 mM HEPES pH 7.4, 150 mM NaCl, 1 mM dithiothreitol). First, a solution of 20 mM compound was consecutively diluted twice, each in 10 times, totally in 100 times to a concentration of 200 μM. […] The recombinant BD1 protein solution and the acetylated histone H4 polypeptide were diluted in the buffer 2 (20 mM HEPES pH 7.4, 150 mM NaCl, 0.01% Triton X-100, 0.1% bovine serum protein (w/v, Sigma), 1 mM dithiothreitol) to 100 nM and 100 nM respectively, to obtain a 8×BD1 protein working solution and a 4× acetylated histone H4 polypeptide working solution. The donor microbeads and the acceptor microbeads are diluted together in the buffer 2, both in the ratio of 1:100, to obtain a 2× microbead mixed working solution. The plate was added with 2.5 μL of BD1 protein working solution and incubated with the compound for 20 min at room temperature, and then added with 5 μL of acetylated histone H4 polypeptide working solution and incubated at room temperature for 5 min, and finally added with 10 μL of microbead mixed working solution and incubated at room temperature for 60 min. […] IC50 values of the compounds at different concentrations for inhibiting the binding of BD1 protein to acetylated H4 polypeptide were calculated by fitting using GraphPad Prism 5.0 software.

| Compound | IC50 |
| --- | --- |
| Cc1cc(-c2cc(NS(C)(=O)=O)ccc2Oc2ccccc2)n2c1C(=O)NCC2 | 76.9 nM |
| Cc1cc(-c2cc(S(C)(=O)=O)ccc2Oc2ccc(F)cc2F)n2cc[nH]c(=O)c12 | 132 nM |
| Cc1cc(-c2ccccc2Oc2ccccc2)n2cc[nH]c(=O)c12 | 905 nM |
| Cc1cc(-c2cc(CS(C)(=O)=O)ccc2Nc2ccc(F)cc2F)n2cc[nH]c(=O)c12 | 161 nM |
| Cc1cc(-c2ccccc2Oc2ccccc2)n2nc[nH]c(=O)c12 | 910 nM |
| Cc1cc(-c2cc(NS(C)(=O)=O)ccc2Oc2ccccc2)n2cn[nH]c(=O)c12 | 114 nM |
| Cc1ccccc1Oc1ccc(NS(C)(=O)=O)cc1-c1cc(C)c2c(=O)[nH]ccn12 | 119 nM |
| Cc1cc(-c2cc(NS(C)(=O)=O)ccc2OC2CCOCC2)n2cn[nH]c(=O)c12 | 124 nM |
| Cc1cc(-c2cc(NS(C)(=O)=O)ccc2OCC2CC2)n2cn[nH]c(=O)c12 | 471 nM |
| Cc1cc(-c2cc(S(C)(=O)=O)ccc2Oc2ccccc2)n2cc[nH]c(=O)c12 | 134 nM |
| Cc1cc(-c2cc(NS(C)(=O)=O)ccc2Oc2ccc(F)cc2F)n2cn[nH]c(=O)c12 | 92.6 nM |
| Cc1cc(-c2cc(CS(C)(=O)=O)ccc2Nc2ccccc2)n2cc[nH]c(=O)c12 | 138 nM |
| CCS(=O)(=O)c1ccc(Oc2ccccc2C)c(-c2cc(C)c3c(=O)[nH]ccn23)c1 | 131 nM |
| Cc1cc(-c2cc(CS(C)(=O)=O)ccc2Oc2ccc(F)cc2F)n2cn[nH]c(=O)c12 | 4.5 nM |
| Cc1cc(-c2cc(NS(C)(=O)=O)ccc2Oc2ccccc2)n2nc[nH]c(=O)c12 | 434 nM |
